Values of other authors as cited in patent publication US20140093564A1, “PHARMACEUTICAL COMPOSITIONS OF COMBINATIONS OF DIPEPTIDYL PEPTIDASE-4 INHIBITORS WITH SIMVASTATIN” (MERCK SHARP & DOHME LTD., priority 2011, published 2014).

Conditions: oral administration, human Type 2 diabetics

Structure (SMILES) | HbA1c levels | fasting glucose | postprandial glucose excursion
N[C@@H](CC(=O)N1CCn2c(nnc2C(F)(F)F)C1)Cc1cc(F)c(F)cc1F [sitagliptin, (2R)-4-oxo-4-[3-(trifluoromethyl)-5,6-dihydro[1,2,4]triazolo[4,3-α]pyrazin-7(8H)-yl]-1-(2,4,5-trifluorophenyl)butan-2-amine] | significantly reduced | reduce | reduce
N#C[C@@H]1CCCN1C(=O)CNC12CC3CC(CC(O)(C3)C1)C2 [vildagliptin, (S)-1-[(3-hydroxy-1-adamantyl)amino]acetyl-2-cyano-pyrrolidine] | significantly reduced | reduce | reduce
